Experimental data from patent US9376694B2, “Method for preparing optically active amino acid using cosubstrate shuttling of transaminase” (INDUSTRY-ACADEMIC COOPERATION FOUNDATION, YONSEI UNIVERSITY, priority 2012, dated 2016).
Where “and” joins values, the source holds several entries; their conditions need not be identical. Equal values may be shown once.

Tests used:
[1] = biological target: T1, branched-chain transaminase (Escherichia coli, UniProt P0AB80); test: Substrate specificity of purified branched-chain transaminase for keto acids; assay type: biochemical, E. coli; conditions: for Concentration of 2-oxobutyrate: purified enzyme (1 U/mL), 20 mM L-homoalanine, 20 mM keto acid, pH 7.0, 37° C., 7 hours
T1 construct: made in house; host or cells: E. coli BL21(DE3)
T1 sequence (P0AB80 whole entry): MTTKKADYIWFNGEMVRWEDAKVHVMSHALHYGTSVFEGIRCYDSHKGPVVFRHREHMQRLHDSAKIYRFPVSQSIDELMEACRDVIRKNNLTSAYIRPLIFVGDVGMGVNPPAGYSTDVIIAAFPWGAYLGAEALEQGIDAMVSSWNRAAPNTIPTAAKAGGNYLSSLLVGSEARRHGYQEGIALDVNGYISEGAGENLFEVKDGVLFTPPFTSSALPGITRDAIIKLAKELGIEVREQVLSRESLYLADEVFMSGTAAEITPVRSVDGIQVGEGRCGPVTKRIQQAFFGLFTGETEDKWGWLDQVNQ
Description: Reaction was conducted using the branched-chain transaminase purified in Example 3 and using various L-amino acids and keto acids described in [Table 3] as substrates. After adding 10 μL of the purified enzyme (1 U/mL) to 100 μL of a mixture of 20 mM L-homoalanine, 20 mM keto acid and 50 mM potassium phosphate (pH 7.0), reaction was conducted at 37° C. for 7 hours and the amount of produced 2-oxobutyrate (keto acid of L-homoalanine) was measured. The result is shown in [Table 3].
When trimethylpyruvate and L-homoalanine were used as substrates, the equilibrium constant of the reaction by the branched-chain transaminase was very low at 0.16.

[2] = system: ω-transaminase derived from Ochrobactrum anthropi; test: Substrate specificity of purified ω-transaminase for keto acids, OawTA; assay type: biochemical; conditions: 20 mM keto acid, 20 mM (S)-α-methylbenzylamine, pH 7.0, 37° C., 6 hours
Description: (§1) Reaction was conducted using the ω-transaminase purified in Example 3 and using various keto acids and amine as substrates as described in [Table 6]. After adding 10 μL of the purified enzyme (6 U/mL) to 100 μL of a mixture of 20 mM keto acid, 20 mM (S)-α-methylbenzylamine and 50 mM potassium phosphate (pH 7.0), reaction was conducted at 37° C. for 6 hours and the amount of produced acetophenone (deaminated ketone of (S)-α-methylbenzylamine) was measured. The result was compared with that of the ω-transaminase derived from Ochrobactrum anthropi. The result is shown in [Table 6].

[3] = system: ω-transaminase derived from Paracoccus denitrificans (PdwTA); test: Substrate specificity of purified ω-transaminase for keto acids in initial stage of reaction, PdwTA; assay type: biochemical; parameters: unit not given here; conditions: purified enzyme (1 U/mL); 20 mM keto acid, 20 mM (S)-α-methylbenzylamine, pH 7.0, 37° C., 10 minutes
Description: as §1, with “7].” for “6].”, “(1” for “(6”, “10 minutes” for “6 hours”

[4] = system: ω-transaminase derived from Paracoccus denitrificans (PdwTA); test: Substrate specificity of purified ω-transaminase for keto acids, PdwTA; assay type: biochemical; conditions: purified enzyme (6 U/mL); 20 mM keto acid, 20 mM (S)-α-methylbenzylamine, pH 7.0, 37° C., 6 hours
Description: as §1

[5] = system: ω-transaminase derived from Ochrobactrum anthropi; test: Substrate specificity of purified ω-transaminase for keto acids in initial stage of reaction, OawTA; assay type: biochemical; parameters: unit not given here; conditions: 20 mM keto acid, 20 mM (S)-α-methylbenzylamine, pH 7.0, 37° C., 10 minutes
Description: as §1, with “7].” for “6].”, “(1” for “(6”, “10 minutes” for “6 hours”

[6] = biological target: T1, branched-chain transaminase; test: Substrate specificity of purified branched-chain transaminase for amino acids with trimethylpyruvate; assay type: biochemical, E. coli; conditions: purified enzyme (6 U/mL); 20 mM trimethylpyruvate, 20 mM L-amino acid, pH 7.0, 37° C., 6 hours
Description: Reaction was conducted using the branched-chain transaminase purified in Example 3 and using various L-amino acids and trimethylpyruvate as substrates as described in [Table 4]. After adding 10 μL of the purified enzyme (6 U/mL) to 100 μL of a mixture of 20 mM trimethylpyruvate, 20 mM L-amino acid and 50 mM potassium phosphate (pH 7.0), reaction was conducted at 37° C. for 6 hours and the amount of produced L-tert-leucine was measured. The result is shown in [Table 4].

[7] = biological target: T1, branched-chain transaminase; test: Substrate specificity of branched-chain transaminase for amino acids with trimethylpyruvate, crude extract; assay type: biochemical, E. coli; conditions: 20 mM trimethylpyruvate, 20 mM L-amino acid, pH 7.0, 37° C., 2 hours
Description: Reaction was conducted using the crude extract containing the branched-chain transaminase obtained in Example 3 and using various trimethylpyruvate (keto acid of L-tert-leucine) as substrates. After adding 100 μL of the crude extract to 200 μL of a mixture of 20 mM trimethylpyruvate, 20 mM L-amino acid and 50 mM potassium phosphate (pH 7.0), reaction was conducted at 37° C. for 2 hours and the amount of produced L-tert-leucine was measured. The result is shown in [Table 2].

[8] = system: ω-transaminase derived from Ochrobactrum anthropi; test: Substrate specificity of purified ω-transaminase for amino acids (glyoxylate acceptor), OawTA; assay type: biochemical; conditions: 20 mM glyoxylate, 20 mM L-amino acid, pH 7.0, 37° C., 6 hours
Description: (§2) Reaction was conducted using the ω-transaminase purified in Example 3 and using various L-amino acids and […] as substrates as described in [Table 5]. After adding 10 μL of the purified enzyme (5 U/mL) to 100 μL of a mixture of 20 mM glyoxylate, 20 mM L-amino acid and 50 mM potassium phosphate (pH 7.0), reaction was conducted at 37° C. for 6 hours and the amount of produced L-glycine was measured. The reaction was conducted 3 times and the result was compared with that of the ω-transaminase derived from Ochrobactrum anthropi. The result is shown in [Table 5].

[9] = system: ω-transaminase derived from Paracoccus denitrificans (PdwTA); test: Substrate specificity of purified ω-transaminase for amino acids (glyoxylate acceptor), PdwTA; assay type: biochemical; conditions: purified enzyme (5 U/mL); 20 mM glyoxylate, 20 mM L-amino acid, pH 7.0, 37° C., 6 hours; reaction conducted 3 times
Description: as §2

[10] = biological target: T1, branched-chain transaminase; test: Substrate specificity of branched-chain transaminase for amino acids, enzyme-containing crude extract; assay type: biochemical, E. coli; conditions: 20 mM L-amino acid, pH 7.0, 37° C., 30 minutes
Description: Reaction was conducted using the crude extract containing the branched-chain transaminase obtained in Example 3 and using various L-amino acids and keto acids described in [Table 1] as substrates. After adding 20 μL of the crude extract to 200 μL of a mixture of 20 mM L-amino acid, 20 mM keto acid and 50 mM potassium phosphate (pH 7.0), reaction was conducted at 37° C. for 30 minutes and the amount of produced L-amino acid was measured. The result is shown in [Table 1].

[11] = 20 mM α-ketoglutarate as keto acid

SMILES | amount of produced acetophenone, PdwTA [3] | amount of produced acetophenone, OawTA [5] | Concentration of L-tert-leucine [6] | Concentration of L-glycine, OawTA [8] [mM] | Concentration of L-glycine, PdwTA [9] | other results
O=C(O)C(=O)C12CC3CC(CC(O)(C3)C1)C2 [2-(3-Hydroxy-1-adamantyl)-2-oxoethanoic acid] | – | – | – | – | – | Concentration of 2-oxobutyrate [1]: 5.47 mM
CCC(=O)C(=O)O [2-Oxobutyrate] | 0.821 | 0.173 | – | – | – | Concentration of acetophenone, OawTA [2]: 5.05 mM; Concentration of acetophenone, PdwTA [4]: 5.03 mM
CCCCC(=O)C(=O)O [2-Oxohexanoic acid] | 0.713 | 0.006 | – | – | – | Concentration of acetophenone, OawTA [2]: 3.07 mM; Concentration of acetophenone, PdwTA [4]: 5.22 mM
CCCC(=O)C(=O)O [2-Oxopentanoic acid] | 1.332 | 0.378 | – | – | – | Concentration of acetophenone, OawTA [2]: 3.45 mM; Concentration of acetophenone, PdwTA [4]: 5.24 mM
CC(C)C(=O)C(=O)O [3-Methyl-2-oxobutyrate] | – | – | – | – | – | Concentration of acetophenone, OawTA [2]: 0.00 mM; Concentration of 2-oxobutyrate [1]: 11.93 mM; Concentration of acetophenone, PdwTA [4]: 0.00 mM
CCC(C)C(=O)C(=O)O (centres unmarked) [3-Methyl-2-oxoxpentanoic acid] | – | – | – | – | – | Concentration of acetophenone, OawTA [2]: 0.00 mM; Concentration of 2-oxobutyrate [1]: 8.49 mM; Concentration of acetophenone, PdwTA [4]: 0.00 mM
CC(C)CC(=O)C(=O)O [4-Methyl-2-oxopentanoic acid] | 0.175 | 0.005 | – | – | – | Concentration of acetophenone, OawTA [2]: 0.03 mM; Concentration of 2-oxobutyrate [1]: 7.27 mM; Concentration of acetophenone, PdwTA [4]: 4.99 mM
O=C(O)C(=O)CF [Fluoropyruvate] | 0.339 | 0.554 | – | – | – | –
O=CC(=O)O [Gyloxylate] | 1.076 | 1.733 | – | – | – | –
C[C@H](N)C(=O)O [L-Alanine] | – | – | 2.24 mM and 2.07 mM and 2.23 mM | 11.73 | 13.92 mM and 13.31 mM and 11.61 mM | Production amount of L-tert-leucine [7]: 0.8 mM
N[C@@H](CCC(=O)O)C(=O)O [L-Glutamate] | – | – | – | – | – | Production amount of L-tert-leucine [7]: 6.4 mM; Production amount of L-amino acid ([10]; 20 mM 2-oxobutyrate as keto acid): 4.2 mM
CC[C@H](N)C(=O)O [L-Homoalanine] | – | – | 5.57 mM and 4.43 mM and 5.71 mM | 4.97 | 12.56 mM and 13.31 mM and 11.26 mM | Production amount of L-tert-leucine [7]: 7.2 mM; Production amount of L-amino acid [10, 11]: 0.1 mM
CC[C@H](C)[C@H](N)C(=O)O [L-Isoleucine] | – | – | 7.79 mM and 7.48 mM and 6.51 mM | 0.00 | 0.00 mM | Production amount of L-tert-leucine [7]: 9.2 mM; Production amount of L-amino acid [10, 11]: 2.6 mM
CC(C)C[C@H](N)C(=O)O [L-Leucine] | – | – | 6.71 mM and 6.32 mM and 7.06 mM | 0.00 | 7.93 mM and 7.95 mM and 5.71 mM | –
CCCC[C@H](N)C(=O)O [L-Norleucine] | – | – | 5.90 mM and 5.48 mM and 5.55 mM | 0.28 | 13.41 mM and 12.97 mM and 12.59 mM | –
CCC[C@H](N)C(=O)O [L-Norvaline] | – | – | 6.31 mM and 5.34 mM and 6.06 mM | 0.36 | 13.43 mM and 14.29 mM and 14.12 mM | –
CC(C)[C@H](N)C(=O)O [L-Valine] | – | – | 6.31 mM and 5.04 mM and 6.23 mM | 0.00 | 0.18 mM and 0.20 mM and 0.17 mM | Production amount of L-tert-leucine [7]: 7.8 mM; Production amount of L-amino acid [10, 11]: 1.6 mM
CC(C)(C)[C@H](N)C(=O)O [L-tert-Leucine] | – | – | – | – | – | Production amount of L-amino acid [10, 11]: 0.06 mM
O=C(O)C(=O)CS [Mercaptopyruvate] | 0.008 | 0.012 | – | – | – | –
CC(C)(C)C(=O)C(=O)O [Trimethylpyruvate] | – | – | – | – | – | Concentration of 2-oxobutyrate [1]: 5.83 mM; equilibrium constant of the reaction by the branched-chain transaminase ([1]; trimethylpyruvate and L-homoalanine as substrates): 0.16
O=C(O)C(=O)CO [β-Hydroxypyruvate] | 0.066 | 0.183 | – | – | – | –
